How the values were obtained:
MDA-MB-231 [1] = experiment: Antiproliferative activity against human MDA-MB-231 cells assessed as reduction in cell viability incubated for 72 hrs by MTT assay; assay type: functional, cell-based; conditions: MDA-MB-231, 72 h
4T1 = experiment: Antiproliferative activity against mouse 4T1 cells assessed as reduction in cell viability incubated for 72 hrs by MTT assay; assay type: functional, cell-based; conditions: 4T1, 72 h
[2] = Cytotoxicity against human MCF-10A cells assessed as reduction in cell viability incubated for 72 hrs by MTT assay; assay type: toxicity, cell-based
[3] = Selectivity index, ratio of IC50 for cytotoxicity against human MCF-10A cells to IC50 for antiproliferative activity against human MDA-MB-231 cells; assay type: toxicity, cell-based; conditions: MCF-10A cells versus MDA-MB-231 cells, read-out: Ratio IC50
MDA-MB-231 [4] = experiment: Induction of NO release in human MDA-MB-231 cells assessed NO concentration by Griess reagent based assay; assay type: functional

| SMILES | IC50 (MDA-MB-231 [1]) [µM] | IC50 (4T1) [µM] | IC50 at 72 h [2] [µM] | selectivity ratio [3] | Activity (MDA-MB-231 [4]) [µM] |
| --- | --- | --- | --- | --- | --- |
| CC(=O)O[C@H]1C(=O)[C@@]2(C)[C@H]([C@H](OC(=O)c3ccccc3)[C@]3(O)C[C@H](OC(=O)[C@H](O)[C@@H](NC(=O)c4ccccc4)c4ccccc4)C(C)=C1C3(C)C)[C@]1(OC(C)=O)CO[C@@H]1C[C@@H]2O [PACLITAXEL] | 4.55 | 3.84 | 7.82 | 1.7 | – |
| CC[C@H]1O[C@@]2(C)[C@H](OC(C)=O)[C@@]1(C)O[C@@H](/C=C/C=C/C=C/c1oc(=O)cc(OC)c1C)[C@@H]2OC(=O)CCCC(=O)OCc1c(CSC[C@@H](NC(C)=O)C(=O)O)no[n+]1[O-] | > 10 | – | – | – | 1.71 |
| CC[C@H]1O[C@]2(C)C(OC(=O)CCCC(=O)OCc3c(CSCCCO)no[n+]3[O-])[C@H](/C=C/C=C/C=C/c3oc(=O)cc(OC)c3C)O[C@]1(C)[C@H]2OC(C)=O (single isomer, unassigned) | > 10 | – | – | – | 2.02 |
| N=C(N)NCCC[C@H](N)C(=O)O [ARGININE] | – | – | – | – | 1.31 |
| CC[C@H]1O[C@@]2(C)[C@H](OC(C)=O)[C@@]1(C)O[C@@H](/C=C/C=C/C=C/c1oc(=O)cc(OC)c1C)[C@@H]2OC(=O)CCCC(=O)OCc1c(-c2ccc(F)cc2)no[n+]1[O-] | 7.24 | > 10 | > 50 | > 7 | 2.27 |
| CC[C@H]1O[C@@]2(C)[C@H](OC(C)=O)[C@@]1(C)O[C@@H](/C=C/C=C/C=C/c1oc(=O)cc(OC)c1C)[C@@H]2OC(=O)CCCCCCCCCCCCCOc1no[n+]([O-])c1S(=O)(=O)c1ccccc1 | > 10 | – | – | – | – |
| CC[C@H]1O[C@@]2(C)[C@H](OC(C)=O)[C@@]1(C)O[C@@H](/C=C/C=C/C=C/c1oc(=O)cc(OC)c1C)[C@@H]2OC(=O)CCCC(=O)OCc1c(CSCC(=O)O)no[n+]1[O-] | > 10 | – | – | – | 1.76 |
| CC[C@H]1O[C@]2(C)C(OC(=O)CCC(=O)OCc3cccc(Oc4no[n+]([O-])c4S(=O)(=O)c4ccccc4)c3)[C@H](/C=C/C=C/C=C/c3oc(=O)cc(OC)c3C)O[C@]1(C)[C@H]2OC(C)=O (single isomer, unassigned) | > 10 | – | – | – | 2.15 |
| CC[C@H]1O[C@]2(C)C(OC(=O)CCC(=O)OCc3ccc(Oc4no[n+]([O-])c4S(=O)(=O)c4ccccc4)cc3)[C@H](/C=C/C=C/C=C/c3oc(=O)cc(OC)c3C)O[C@]1(C)[C@H]2OC(C)=O (single isomer, unassigned) | 5.88 | > 10 | – | – | 2.44 |
| CC[C@H]1O[C@]2(C)C(OC(=O)CCCC(=O)OCc3c(CSCCC(=O)O)no[n+]3[O-])[C@H](/C=C/C=C/C=C/c3oc(=O)cc(OC)c3C)O[C@]1(C)[C@H]2OC(C)=O (single isomer, unassigned) | > 10 | – | – | – | 1.89 |
| CC[C@H]1O[C@@]2(C)[C@H](OC(C)=O)[C@@]1(C)O[C@@H](/C=C/C=C/C=C/c1oc(=O)cc(OC)c1C)[C@@H]2OC(=O)CCCC(=O)OCc1c(-c2ccccc2)no[n+]1[O-] | 9.93 | – | – | – | 1.93 |
| CC[C@H]1O[C@@]2(C)[C@H](OC(C)=O)[C@@]1(C)O[C@@H](/C=C/C=C/C=C/c1oc(=O)cc(OC)c1C)[C@@H]2OC(=O)CCCC(=O)OCc1c(-c2ccc(C)cc2)no[n+]1[O-] | 5.72 | 7.16 | > 50 | > 8 | – |

More lines, main results first:

| IC50 (MDA-MB-231 [1]) [µM] | IC50 (4T1) [µM] | SMILES | IC50 at 72 h [2] [µM] | selectivity ratio [3] | Activity (MDA-MB-231 [4]) [µM] |
| --- | --- | --- | --- | --- | --- |
| 4.55 | 8.33 | CC[C@H]1O[C@@]2(C)[C@H](OC(C)=O)[C@@]1(C)O[C@@H](/C=C/C=C/C=C/c1oc(=O)cc(OC)c1C)[C@@H]2OC(=O)CCCC(=O)OCc1c(-c2ccc(C(F)(F)F)cc2)no[n+]1[O-] | > 50 | > 10 | – |
| 0.69 | 1.55 | CC[C@H]1O[C@@]2(C)[C@H](OC(C)=O)[C@@]1(C)O[C@@H](/C=C/C=C/C=C/c1oc(=O)cc(OC)c1C)[C@@H]2OC(=O)CCC(=O)ONC(=O)CCCOc1no[n+]([O-])c1S(=O)(=O)c1ccccc1 | > 50 | > 72 | – |
| 0.7 | 1.23 | CC[C@H]1O[C@@]2(C)[C@H](OC(C)=O)[C@@]1(C)O[C@@H](/C=C/C=C/C=C/c1oc(=O)cc(OC)c1C)[C@@H]2OC(=O)CCCCCCCOc1no[n+]([O-])c1S(=O)(=O)c1ccccc1 | > 50 | > 71 | – |
| 3.87 | 6.72 | CC[C@H]1O[C@@]2(C)[C@H](OC(C)=O)[C@@]1(C)O[C@@H](/C=C/C=C/C=C/c1oc(=O)cc(OC)c1C)[C@@H]2OC(=O)CCCC(=O)OCc1c(-c2ccc(OC)cc2)no[n+]1[O-] | > 50 | > 13 | – |
| 1.05 | 1.89 | CC[C@H]1O[C@@]2(C)[C@H](OC(C)=O)[C@@]1(C)O[C@@H](/C=C/C=C/C=C/c1oc(=O)cc(OC)c1C)[C@@H]2OC(=O)CCC(=O)ONC(=O)CCCCCOc1no[n+]([O-])c1S(=O)(=O)c1ccccc1 | > 50 | > 48 | – |
| 1.5 | 3.42 | CC[C@H]1O[C@@]2(C)[C@H](OC(C)=O)[C@@]1(C)O[C@@H](/C=C/C=C/C=C/c1oc(=O)cc(OC)c1C)[C@@H]2OC(=O)CCC(=O)ONC(=O)COCCOc1no[n+]([O-])c1S(=O)(=O)c1ccccc1 | > 50 | > 33 | – |
| 3.28 | 5.56 | CC[C@H]1O[C@@]2(C)[C@H](OC(C)=O)[C@@]1(C)O[C@@H](/C=C/C=C/C=C/c1oc(=O)cc(OC)c1C)[C@H]2OC(=O)CCC(=O)OCCc1ccc(Oc2no[n+]([O-])c2S(=O)(=O)c2ccccc2)cc1 | > 50 | > 15 | – |
| 0.45 | 0.72 | CC[C@H]1O[C@@]2(C)[C@H](OC(C)=O)[C@@]1(C)O[C@@H](/C=C/C=C/C=C/c1oc(=O)cc(OC)c1C)[C@H]2OC(=O)CCC(=O)OCCCCCCOc1no[n+]([O-])c1S(=O)(=O)c1ccccc1 | > 50 | > 111 | 4.92 |
| 1.09 | 2.14 | O=S(=O)(c1ccccc1)c1no[n+]([O-])c1S(=O)(=O)c1ccccc1 | 3.8 | 3.1 | 8.06 |
| 1.75 | 2.7 | CC[C@H]1O[C@@]2(C)[C@H](OC(C)=O)[C@@]1(C)O[C@@H](/C=C/C=C/C=C/c1oc(=O)cc(OC)c1C)[C@@H]2OC(=O)CCC(=O)OCCOCCOc1no[n+]([O-])c1S(=O)(=O)c1ccccc1 | > 50 | > 28 | – |
| 0.42 | 0.55 | CC[C@H]1O[C@@]2(C)[C@H](OC(C)=O)[C@@]1(C)O[C@@H](/C=C/C=C/C=C/c1oc(=O)cc(OC)c1C)[C@H]2OC(=O)CCC(=O)OCCCCOc1no[n+]([O-])c1S(=O)(=O)c1ccccc1 | > 50 | > 119 | 5.23 |
| 1.23 | 2.08 | CC[C@H]1O[C@@]2(C)[C@H](OC(C)=O)[C@@]1(C)O[C@@H](/C=C/C=C/C=C/c1oc(=O)cc(OC)c1C)[C@@H]2OC(=O)CCC(=O)OCC#CCOc1no[n+]([O-])c1S(=O)(=O)c1ccccc1 | > 50 | > 40 | – |
| 0.6 | 1.12 | CC[C@H]1O[C@@]2(C)[C@H](OC(C)=O)[C@@]1(C)O[C@@H](/C=C/C=C/C=C/c1oc(=O)cc(OC)c1C)[C@H]2OC(=O)CCC(=O)OCCCCCOc1no[n+]([O-])c1S(=O)(=O)c1ccccc1 | > 50 | > 83 | 4.6 |
| 1.23 | 2.72 | CC[C@H]1O[C@@]2(C)[C@H](OC(C)=O)[C@@]1(C)O[C@@H](/C=C/C=C/C=C/c1oc(=O)cc(OC)c1C)[C@@H]2OC(=O)CCC(=O)ONC(=O)CCCCOc1no[n+]([O-])c1S(=O)(=O)c1ccccc1 | > 50 | > 40 | – |
| 0.99 | 2.14 | CC[C@H]1O[C@@]2(C)[C@H](OC(C)=O)[C@@]1(C)O[C@@H](/C=C/C=C/C=C/c1oc(=O)cc(OC)c1C)[C@@H]2OC(=O)CCCCCOc1no[n+]([O-])c1S(=O)(=O)c1ccccc1 | > 50 | > 50 | – |
| 0.5 | 0.77 | CC[C@H]1O[C@@]2(C)[C@H](OC(C)=O)[C@@]1(C)O[C@@H](/C=C/C=C/C=C/c1oc(=O)cc(OC)c1C)[C@@H]2OC(=O)COCCOCCOc1no[n+]([O-])c1S(=O)(=O)c1ccccc1 | > 50 | > 100 | – |

— ChEMBL document CHEMBL5523764, “Discovery of NO Donor-Aurovertin Hybrids as Dual Ferroptosis and Apoptosis Inducers for Treating Triple Negative Breast Cancer” (J Med Chem, 2024)
